Results: ChEMBL document CHEMBL1201862, “PubChem BioAssay data set” (2004)
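The compound was tested at five concentrations on cells cultured in 96-well plates, with a 48-hour exposure period. Abbreviation: GI50, concentration required for 50% inhibition of growth.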 Activity calls are given as the source filed them. No stated cut-off is given here; in the data, active = GI50 up to about 1.1 µM and inactive = higher.

Columns and labels:
Test in all cases: inhibition of tumour cell growth, NCI panel, 48 h
OVCAR-5 = tested on: OVCAR-5
CAKI-1 = tested on: CAKI-1
SF-295 = tested on: SF-295
DMS-114 = tested on: DMS-114
KM-20L2 = tested on: KM-20L2
OVCAR-3 = tested on: OVCAR-3
DMS-273 = tested on: DMS-273
KM12 = tested on: KM12
SF-268 = tested on: SF-268
TK-10 = tested on: TK-10
SK-MEL-2 = tested on: SK-MEL-2
RPMI-8226 = tested on: RPMI-8226
HOP-92 = tested on: HOP-92
SR = tested on: SR
NCI-H522 = tested on: NCI-H522
SK-OV-3 = tested on: SK-OV-3
CCRF-CEM = tested on: CCRF-CEM

C=C(C)CC(C(=O)O)c1ccc(C)cc1 (centres undefined)
GI50 (OVCAR-5): > 100 µM (inactive)
GI50 (CAKI-1): > 100 µM (inactive)
GI50 (SF-295): > 100 µM (inactive)
GI50 (DMS-114): > 100 µM (inactive)
GI50 (KM-20L2): > 100 µM (inactive)
GI50 (OVCAR-3): > 100 µM (inactive)
GI50 (DMS-273): > 100 µM (inactive)
GI50 (KM12): > 100 µM (inactive)
GI50 (SF-268): > 100 µM (inactive)
GI50 (TK-10): > 100 µM (inactive)
GI50 (SK-MEL-2): > 100 µM (inactive)
GI50 (RPMI-8226): > 100 µM (inactive)
GI50 (HOP-92): > 100 µM (inactive)
GI50 (SR): > 100 µM (inactive)

OCCCCCNc1ccnc2cc(Cl)ccc12
GI50 (NCI-H522): 87.5 µM (inactive)
GI50 (SK-OV-3): > 100 µM (inactive)
GI50 (OVCAR-5): 83.2 µM (inactive)
GI50 (CAKI-1): > 100 µM (inactive)
GI50 (SF-295): 47.3 µM (inactive)
GI50 (DMS-114): 36.7 µM (inactive)
GI50 (KM-20L2): > 100 µM (inactive)
GI50 (OVCAR-3): 65.5 µM (inactive)
GI50 (DMS-273): > 100 µM (inactive)
GI50 (CCRF-CEM): > 100 µM (inactive)
GI50 (KM12): > 100 µM (inactive)
GI50 (SF-268): > 100 µM (inactive)
GI50 (SK-MEL-2): > 100 µM (inactive)
GI50 (RPMI-8226): 31.3 µM (inactive)
GI50 (HOP-92): > 100 µM (inactive)
GI50 (SR): 19.5 µM (inactive)

COc1cc(Nc2nc3cc(C(F)(F)F)ccc3nc2-c2ccccc2)cc(OC)c1OC
GI50 (NCI-H522): 37.8 µM (inactive)
GI50 (SK-OV-3): 31.6 µM (inactive)
GI50 (OVCAR-5): > 100 µM (inactive)
GI50 (CAKI-1): < 0.01 µM (active)
GI50 (SF-295): 54.6 µM (inactive)
GI50 (DMS-114): > 100 µM (inactive)
GI50 (OVCAR-3): 73.3 µM (inactive)
GI50 (DMS-273): 22.8 µM (inactive)
GI50 (CCRF-CEM): > 100 µM (inactive)
GI50 (KM12): > 100 µM (inactive)
GI50 (SF-268): > 100 µM (inactive)
GI50 (TK-10): 30.5 µM (inactive)
GI50 (SK-MEL-2): > 100 µM (inactive)
GI50 (HOP-92): 1.82 µM (inactive)
GI50 (SR): > 100 µM (inactive)

NC(=O)/N=C1\NC(Cc2ccccc2)C(=O)N1Cc1ccccc1 (centres undefined)
GI50 (SK-OV-3): > 100 µM (inactive)
GI50 (OVCAR-5): > 100 µM (inactive)
GI50 (SF-295): > 100 µM (inactive)
GI50 (DMS-114): > 100 µM (inactive)
GI50 (KM-20L2): > 100 µM (inactive)
GI50 (OVCAR-3): > 100 µM (inactive)
GI50 (DMS-273): > 100 µM (inactive)
GI50 (CCRF-CEM): > 100 µM (inactive)
GI50 (KM12): > 100 µM (inactive)
GI50 (SF-268): > 100 µM (inactive)
GI50 (TK-10): > 100 µM (inactive)
GI50 (RPMI-8226): > 100 µM (inactive)
GI50 (SR): > 100 µM (inactive)

Cc1c2ncccc2c(C)c2c1[nH]c1ccccc12
GI50 (NCI-H522): 13 µM (inactive)
GI50 (SK-OV-3): 17.4 µM (inactive)
GI50 (OVCAR-5): 14.1 µM (inactive)
GI50 (CAKI-1): 9.23 µM (inactive)
GI50 (SF-295): 8.57 µM (inactive)
GI50 (KM-20L2): 7.11 µM (inactive)
GI50 (OVCAR-3): 14.3 µM (inactive)
GI50 (DMS-273): 4.84 µM (inactive)
GI50 (CCRF-CEM): 10.2 µM (inactive)
GI50 (KM12): 10.3 µM (inactive)
GI50 (SF-268): 13.8 µM (inactive)
GI50 (TK-10): 17.7 µM (inactive)
GI50 (SK-MEL-2): 22.9 µM (inactive)
GI50 (RPMI-8226): 6.59 µM (inactive)
GI50 (HOP-92): 7.98 µM (inactive)

O=C(c1ccccc1)c1nnc(C(=O)c2ccccc2)nn1
GI50 (NCI-H522): 134 µM (inactive)
GI50 (SK-OV-3): 278 µM (inactive)
GI50 (OVCAR-5): > 344 µM (inactive)
GI50 (CAKI-1): > 344 µM (inactive)
GI50 (SF-295): 139 µM (inactive)
GI50 (KM-20L2): > 344 µM (inactive)
GI50 (OVCAR-3): > 344 µM (inactive)
GI50 (DMS-273): > 344 µM (inactive)
GI50 (CCRF-CEM): 265 µM (inactive)
GI50 (KM12): > 344 µM (inactive)
GI50 (SF-268): > 344 µM (inactive)
GI50 (TK-10): > 344 µM (inactive)
GI50 (SK-MEL-2): > 344 µM (inactive)
GI50 (RPMI-8226): > 344 µM (inactive)
GI50 (HOP-92): 166 µM (inactive)
GI50 (SR): 4.45 µM (inactive)

CCOc1cccc2cccnc12
GI50 (NCI-H522): > 100 µM (inactive)
GI50 (SK-OV-3): > 100 µM (inactive)
GI50 (OVCAR-5): > 100 µM (inactive)
GI50 (SF-295): > 100 µM (inactive)
GI50 (DMS-114): > 100 µM (inactive)
GI50 (KM-20L2): > 100 µM (inactive)
GI50 (OVCAR-3): > 100 µM (inactive)
GI50 (CCRF-CEM): > 100 µM (inactive)
GI50 (KM12): > 100 µM (inactive)
GI50 (SF-268): > 100 µM (inactive)
GI50 (TK-10): > 100 µM (inactive)
GI50 (RPMI-8226): > 100 µM (inactive)
GI50 (HOP-92): > 100 µM (inactive)

CCCCCCCCCCCCCCCCc1c(C(=O)OC)[nH]c(=S)[nH]c1=O
GI50 (NCI-H522): > 50 µM (inactive)
GI50 (SK-OV-3): > 50 µM (inactive)
GI50 (OVCAR-5): > 50 µM (inactive)
GI50 (CAKI-1): > 50 µM (inactive)
GI50 (SF-295): > 50 µM (inactive)
GI50 (KM-20L2): > 50 µM (inactive)
GI50 (OVCAR-3): > 50 µM (inactive)
GI50 (DMS-273): > 50 µM (inactive)
GI50 (CCRF-CEM): > 50 µM (inactive)
GI50 (KM12): > 50 µM (inactive)
GI50 (SF-268): > 50 µM (inactive)
GI50 (TK-10): > 50 µM (inactive)
GI50 (SK-MEL-2): > 50 µM (inactive)
GI50 (RPMI-8226): > 50 µM (inactive)
GI50 (HOP-92): 12.1 µM (inactive)
GI50 (SR): 0.0151 µM (active)

O=Cc1cc2sc(C=O)cc2s1
GI50 (NCI-H522): 93.3 µM (inactive)
GI50 (SK-OV-3): > 100 µM (inactive)
GI50 (OVCAR-5): > 100 µM (inactive)
GI50 (CAKI-1): 45.3 µM (inactive)
GI50 (SF-295): > 100 µM (inactive)
GI50 (DMS-114): > 100 µM (inactive)
GI50 (KM-20L2): > 100 µM (inactive)
GI50 (OVCAR-3): > 100 µM (inactive)
GI50 (DMS-273): > 100 µM (inactive)
GI50 (CCRF-CEM): > 100 µM (inactive)
GI50 (KM12): > 100 µM (inactive)
GI50 (SF-268): > 100 µM (inactive)
GI50 (TK-10): > 100 µM (inactive)
GI50 (RPMI-8226): > 100 µM (inactive)
GI50 (HOP-92): > 100 µM (inactive)
GI50 (SR): > 100 µM (inactive)
